What was measured:
[1] = test system: NIH 3T3 cells; assay: Col1a1/Col3a1 mRNA expression in dermal fibroblasts (qRT-PCR); assay type: cell-based, mouse; conditions: for collagen transcription (Col1a1/Col3a1 mRNA): NIH 3T3 stimulated with 1 μM S1P for 24 hours in presence of 10 μM inhibitor
Experimental: Mouse dermal fibroblast NIH 3T3 cells were cultured in DMEM. To analyze the production of collagens, ascorbic acid 2-phosphate (Sigma-Aldrich) was added in culture medium to 0.2 mM of final concentration.
We performed sCA preparation as previously published (23). We mixed 4 μl of 1M CaCl2) with 2 μg of plasmid DNA in 1 mL of an inorganic solution (NaHCO3; 44 mM, NaH2PO4; 0.9 mM, CaCl2); 1.8 mM, pH 7.5), then incubated at 37° C. for 30 min. The solution was centrifuged at 12,000 rpm for 3 min, and the pellet was dissolved with DMEM. We sonicated the solution in a water bath for 10 min to generate sCA. Cells were cultured in 6 well plate for 24 hours, then incubated with sCA-DMEM solution for 6 hours. We changed medium into DMEM with 10% FBS and incubated for additional 48 hours, then collected for total RNA isolation.
Total RNA was extracted using TRIzol® Regent (Invitrogen). cDNA was then synthesized using High Capacity cDNA Reverse Transcription Kits (Applied Biosystems, Foster City, Calif.). qRT-PCR was performed using an CFX96 Real-Time System (Bio-Rad, Hercules, Calif.) with PowerUp SYBR Green master mix (Bio-Rad). GAPDH served as the internal control. Relative expression was calculated using the 2-ΔΔCt method with correction for different amplification efficiencies.

[2] = test system: scar neovasculature; assay: Neovasculature analysis in scars; assay type: in vivo, mouse; conditions: S1P treatment vs vehicle, Balb/c mice, at the point of epithelization
Source text: We performed neovasculature analysis using standard approaches.

[3] = test system: inflammatory cells in wound; assay: Flow cytometry of cells separated from mouse wound tissues; assay type: in vivo; conditions: 1 uM S1P topical vs vehicle
Source text: Mouse excisional wound splinting model were generated as previously published 1. Mice were anesthetized using isoflurane and removed dorsal hair. Two of 5 mm-diameter full-thickness skin punches were created symmetrically besides the midline. 12 mm diameter circle-shaped silicon lubber splints in which 6 mm diameter circles were punched in center were used for wound splinting. […] were fixed with instant-bonding adhesive and sutures around wounds. After application with any ointment, dressings were performed with Tegaderm (3M, Maplewood, Minn.). We performed cell separation from mouse wound tissues as previously published^4. We digested the tissues cut into small pieces in DMEM with 10% FBS, 1.2 mg/ml hyaluronidase (Sigma Aldrich), 2 mg/ml collagenase (Sigma Aldrich), and 0.2 mg/ml DNase I (Sigma Aldrich) at 37° C. for 90 min. Cell pellets were resuspended in PBS with 2% FBS, incubated with anti-CD16/32 antibody (Biolegend, San Diego, Calif.) for 5 min to block Fcγ receptors. For inflammatory cell recruitment analysis, we stained with phycoerythrin (PE)-conjugated anti-Gr-1, allophycocyanin (APC)-conjugated anti-CD3a, PE/CY7 conjugated anti-CD4, or fluorescein isothiocyanate (FITC)-conjugated anti-CD8a antibody (CiteAb, Bath, UK) at 4° C. for 20 min. […] Cells were analyzed with FACSDiva (BD, San Jose, Calif.).

[4] = test system: mouse excisional wound; assay: Mouse excisional wound splinting model, wound area analysis; assay type: in vivo
Source text: Mouse excisional wound splinting model were generated as previously published 1. Mice were anesthetized using isoflurane and removed dorsal hair. Two of 5 mm-diameter full-thickness skin punches were created symmetrically besides the midline. 12 mm diameter circle-shaped silicon lubber splints in which 6 mm diameter circles were punched in center were used for wound splinting. […] were fixed with instant-bonding adhesive and sutures around wounds. After application with any ointment, dressings were performed with Tegaderm (3M, Maplewood, Minn.). S1P was purchased from Sigma-Aldrich (Carlsbad, Calif.). 1 mM S1P in 4% bovine serum albumin was prepared with sonication, diluted 1000-fold for 1 μM ointment or 10-fold for 100 μM ointment with Aquaphor® and mixed well. We generated sCA with 100 ug plasmid DNA and dissolved the sCA pellet with 50 μl PBS. Then we mixed all of the solution into 200 μl of Aquaphor®. We used 250 μl ointment for 4 wounds of 2 mice. Digital photo images were analyzed using GIMP 2.8 software. The pixels of wound area were normalized by those of inside area of silicon splint. Then, the ratios devised by wound area at day 0 were calculated.

[5] = test system: wound tissue; assay: Immunohistochemistry of wounds (F4/80, Ki67, CD34); assay type: in vivo, mouse; conditions: 1 uM S1P topical vs vehicle, day 5 after punch
Source text: Mouse excisional wound splinting model were generated as previously published 1. Mice were anesthetized using isoflurane and removed dorsal hair. Two of 5 mm-diameter full-thickness skin punches were created symmetrically besides the midline. 12 mm diameter circle-shaped silicon lubber splints in which 6 mm diameter circles were punched in center were used for wound splinting. […] were fixed with instant-bonding adhesive and sutures around wounds. After application with any ointment, dressings were performed with Tegaderm (3M, Maplewood, Minn.). We performed H&E, Masson's trichrome staining on paraffin-embedded sections. We used primary antibodies against F4/80, Ki67 and CD34. Immunostaining was developed with VECTASTAIN Universal Elite ABC Kit (Vector, Burlingame, Calif.). We purchased all antibodies from Abcam (Cambridge, UK). We analyzed the results using ImageJ.

[6] = test system: scar; assay: Scar thickness analysis (Masson's trichrome); assay type: in vivo, mouse; conditions: 1 μM S1P topical vs vehicle, at the point of epithelization
Source text: We performed H&E, Masson's trichrome staining on paraffin-embedded sections. We used primary antibodies against F4/80, Ki67 and CD34. Immunostaining was developed with VECTASTAIN Universal Elite ABC Kit (Vector, Burlingame, Calif.). We purchased all antibodies from Abcam (Cambridge, UK). We analyzed the results using ImageJ. We calculated scar thickness with Masson's trichrome stain images using ImageJ.

[7] = NIH 3T3 stimulated with exogenous S1P for 24 hours

Structure (SMILES)	collagen transcription (Col1a1/Col3a1 mRNA) [1]	neovasculatures in scars [2]	recruitment of granulocytes (Gr-1 positive cells) ([3]; day 2 after punch)	percentage of T cells in wounds ([3]; day 5 after punch)	wound closure ([4]; 1 μM S1P topical treatment vs control vehicle)	wound closure ([4]; 100 μM S1P treatment, Balb/c mice)	wound closure ([4]; high concentration S1P (100 PM) vs vehicle, C57BL6/J mice)	transcription of Col1a1 [1, 7]	transcription of Col3a1 [1, 7]	angiogenesis (CD34 immunohistochemistry) [5]	cell proliferation (Ki67) [5]	scar thickness [6]
Cc1nn(C)c2nc(NNC(=O)Nc3cc(Cl)nc(Cl)c3)cc(C(C)C)c12 [JTE013, reference compound]	increased	–	–	–	–	–	–	–	–	–	–	–
CCCCCCCCc1cccc(NC(=O)[C@H](N)COP(=O)(O)O)c1 [VPC23019, reference compound]	increased	–	–	–	–	–	–	–	–	–	–	–
CCCCCCCCCCCCC/C=C/[C@@H](O)[C@@H](N)COP(=O)(O)O [S1P, sphingosine-1-phosphate]	–	confirmed the development of neovasculatures	does not influence	did not increase	significantly promoted	significantly obstructed	no difference	inhibited	inhibited	promoting angiogenesis	no effect	statistically significant reduction in scar thickness were not obtained

From patent US20220257617A1, “COMPOSITIONS AND METHODS FOR KELOIDLESS HEALING” (priority 2017, published 2022)
